Assay results: patent US20100068147A1, “DENGUE DIAGNOSIS AND TREATMENT” (Agency for Science , Technology and Research, priority 2006, published 2010)
pIC50, pKi: −log10 of the molar value. Where a SMILES comes first, the peptide text is derived from it. [ ]: non-standard residue; d: D form. The star is where a group is joined. Nle = CCCC[C@H](N)C(=O)O; Nva = CCC[C@H](N)C(=O)O; Cbz = O=C(OCc1ccccc1)*

What was measured:
[1] = target: chymotrypsin-like activity (Homo sapiens, UniProt P28074); details: cited from earlier work
proteasome = details: cited from earlier work
dengue virus TSV01 = assay: Plaque assay of supernatants of HepG2 cells infected with dengue virus TSV01 in the presence of ubiquitin-proteasome inhibitors; type: cell-based, dengue virus serotype 2; details: for virus replication in the HepG2 cell line by plaque assay of the cell culture supernatants: FIG. 4A, two days after infection, MG-132 0.4 and 0.6 μM, ALLN 10 and 15 μM, MOI 10, vs DMSO alone; for virus replication in the HepG2 cell line by plaque assay of the cell culture supernatants / virus replication by plaque assay: 2 hrs prior to infection; for virus replication by plaque assay: FIG. 7G, HepG2, MG-132 0.04 and 0.4 μM, ALLN 1 and 10 μM, MOI 10, 48 hrs
Description: The HepG2 cell line is infected with TSV01, a serotype 2 dengue virus (Genbank AY037116; McBride and Vasudevan, 1995), and cells harvested over a succession of time points up to three days post-infection.
In a second experiment we applied specific compounds to our in vitro experiment (described above) that are known to alter the function of these (and other) genes in this pathway (Table E1 below).
HepG2 cells (ATCC) are treated with proteasome inhibitors prior to infection with dengue virus. […]
HepG2 cells are cultured ON in 24 well plates. […]
Cell culture supernatants are collected and assayed for dengue virus by plaque assay. Plaque forming units per ml are expressed as the mean percentage of the highest number of pfu/ml (DMSO alone)±SEM, (n=3). Cytotoxicity is measured using FDA and results are expressed as the mean percentage compared to DMSO alone±SEM, (n=3). “*” indicates p<0.05 and “**”indicates p<0.005 by students t-test comparing each treatment to DMSO alone.
The type 2 dengue virus strain TSV01 is obtained from an outbreak in Townsville, Australia (McBride and Vasudevan 1995) (GenBank, accession number AY037116). TSV01 is cultured in the C6/36 cell line (from the Aedes albopictus mosquito) with virus added to cells in a T175 flask (MOI 0.01) and incubated for 1 hr at 28° C. with brief mixing every 20 min. Media is removed and cells washed in fresh media then media with 5% FBS added and cells incubated for 5 days at 28° C. Cell culture supernatants are removed and centrifuged at 1000×g for 10 min at 4° C. then pooled and stored in aliquots at −80° C. Heat-inactivated virus is prepared by incubating virus samples at 55° C. for 1 hr, with heat-inactivation confirmed by plaque assay.
For plaque assay, BHK-21 cells are cultured ON in 24 well plates before media is removed and serial dilutions (10-fold) of cell culture supernatants added to individual wells. Plates are incubated for 1 hr before media is aspirated and replaced with 0.5 ml of 0.8% methyl-cellulose medium (with 2% FBS). Plates are then incubated for 5 days before the media is removed and cells fixed in 4% formaldehyde for 20 min then rinsed in water and stained with crystal violent for 20 min and rinsed again. Plaques are counted manually and concentrations of plaque forming units per ml (pfu/ml) of the sample cell culture supernatant calculated.

26S complex = details: cited from earlier work
NF-kB activation = details: cited from earlier work
26S proteasome = details: cited from earlier work
20S proteasome = details: cited from earlier work
calpain I = target: T1, calpain I (Homo sapiens, UniProt P07384); details: cited from earlier work
T1 sequence (P07384 1-714): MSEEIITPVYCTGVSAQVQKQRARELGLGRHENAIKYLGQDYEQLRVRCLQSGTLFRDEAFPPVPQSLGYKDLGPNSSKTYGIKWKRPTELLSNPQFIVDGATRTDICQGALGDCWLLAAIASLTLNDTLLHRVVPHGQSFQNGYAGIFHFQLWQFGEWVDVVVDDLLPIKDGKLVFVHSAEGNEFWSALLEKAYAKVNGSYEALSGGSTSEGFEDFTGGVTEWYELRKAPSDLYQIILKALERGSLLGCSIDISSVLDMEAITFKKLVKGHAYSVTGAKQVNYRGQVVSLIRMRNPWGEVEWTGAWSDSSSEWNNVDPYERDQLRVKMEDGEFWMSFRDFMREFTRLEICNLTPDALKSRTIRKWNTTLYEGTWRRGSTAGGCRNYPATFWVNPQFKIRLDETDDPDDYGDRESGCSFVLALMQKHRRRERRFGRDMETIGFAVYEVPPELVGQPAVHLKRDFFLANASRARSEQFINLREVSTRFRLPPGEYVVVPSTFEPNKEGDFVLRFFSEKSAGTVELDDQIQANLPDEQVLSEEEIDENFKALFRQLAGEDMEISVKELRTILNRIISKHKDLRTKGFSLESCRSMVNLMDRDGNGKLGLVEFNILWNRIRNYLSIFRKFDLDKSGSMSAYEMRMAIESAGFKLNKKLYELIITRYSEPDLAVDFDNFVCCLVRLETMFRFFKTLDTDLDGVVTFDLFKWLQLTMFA
T1 sequence (P04632 1-268 partner): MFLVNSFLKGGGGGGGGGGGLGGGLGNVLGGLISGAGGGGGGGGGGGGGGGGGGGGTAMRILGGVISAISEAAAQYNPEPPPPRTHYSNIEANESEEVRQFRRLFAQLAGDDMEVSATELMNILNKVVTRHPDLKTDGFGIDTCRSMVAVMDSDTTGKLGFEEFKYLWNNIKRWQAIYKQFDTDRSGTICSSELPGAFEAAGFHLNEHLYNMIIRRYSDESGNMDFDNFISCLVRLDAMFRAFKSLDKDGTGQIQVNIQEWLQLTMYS

calpain II = target: T2, calpain II (Homo sapiens, UniProt P17655); details: cited from earlier work
T2 sequence (P17655 1-700): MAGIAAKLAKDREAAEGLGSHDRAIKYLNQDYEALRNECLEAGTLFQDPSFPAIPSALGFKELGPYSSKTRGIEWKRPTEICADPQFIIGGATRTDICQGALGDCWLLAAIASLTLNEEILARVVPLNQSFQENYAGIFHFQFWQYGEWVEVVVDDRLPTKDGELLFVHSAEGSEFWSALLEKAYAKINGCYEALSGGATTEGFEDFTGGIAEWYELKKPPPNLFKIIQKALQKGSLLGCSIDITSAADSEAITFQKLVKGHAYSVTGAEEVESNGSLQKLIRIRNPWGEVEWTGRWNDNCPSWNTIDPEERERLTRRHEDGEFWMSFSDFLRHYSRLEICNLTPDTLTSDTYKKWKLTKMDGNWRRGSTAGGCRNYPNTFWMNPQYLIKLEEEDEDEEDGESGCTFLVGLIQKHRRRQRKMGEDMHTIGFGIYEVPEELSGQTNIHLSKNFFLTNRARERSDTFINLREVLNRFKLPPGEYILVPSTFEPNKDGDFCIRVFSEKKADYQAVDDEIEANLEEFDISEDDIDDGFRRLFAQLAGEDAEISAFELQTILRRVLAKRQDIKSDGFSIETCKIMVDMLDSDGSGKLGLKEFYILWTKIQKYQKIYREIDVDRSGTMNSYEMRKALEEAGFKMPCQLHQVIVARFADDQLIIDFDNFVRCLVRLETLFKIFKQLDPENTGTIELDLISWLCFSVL
T2 sequence (P04632 1-268 partner): T1 sequence (P04632 1-268 partner)

[2] = target: calpain I, calpain II, cathepsin B, and cathepsin L; details: one range for the four enzymes; cited from earlier work
cathepsin L = cathepsin L (Homo sapiens, UniProt P07711); details: cited from earlier work
Sequence of cathepsin L (P07711 114-333, species assumed): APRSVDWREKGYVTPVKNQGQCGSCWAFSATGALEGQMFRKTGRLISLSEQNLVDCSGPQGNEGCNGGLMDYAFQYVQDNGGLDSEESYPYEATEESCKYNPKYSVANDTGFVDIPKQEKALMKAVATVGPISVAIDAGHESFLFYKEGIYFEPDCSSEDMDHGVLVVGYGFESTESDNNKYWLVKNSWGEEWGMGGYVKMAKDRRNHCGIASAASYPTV

With `CC(C)C[C@H](NC(=O)OCc1ccccc1)C(=O)N[C@@H](CC(C)C)C(=O)N[C@H](C=O)Cc1ccccc1` [Proteasome Inhibitor II, Z-Leu-Leu-Phenylalaninal] (Cbz-Leu-Leu-Phe-aldehyde) as the molecule, how does the pKi [1] read?
Its pKi is 6.34.

What does the source list for `CC(C)C[C@@H](C=O)NC(=O)[C@H](CC(C)C)NC(=O)[C@H](CC(C)C)NC(=O)OCc1ccccc1` [MG-132, Carbobenzoxy-L-leucyl-L-leucyl-L-leucinal] (Cbz-Leu-Leu-Leu-aldehyde)?
pKi (proteasome): 8.40; virus replication in the HepG2 cell line by plaque assay of the cell culture supernatants (dengue virus TSV01): significantly reduced; virus replication by plaque assay (dengue virus TSV01): significantly and consistently reduced; effective concentrations, reduction of degradation of ubiquitin-conjugated proteins (26S complex): micromolar concentrations. Sequence: Z-Leu-; pIC50 (NF-kB activation): 5.52

For `C[C@@H]1C[C@H]2[C@@H]3CCC4=CC(=O)C=C[C@]4(C)[C@@]3(F)[C@@H](O)C[C@]2(C)[C@@]1(O)C(=O)CO` [Dexamethasone, dexamethasone], which “effect on viral replication” value (dengue virus TSV01; HepG2 infection model, data not shown) is on record?
Its value is “no effect”.

What does the source list for `CCC[C@@H](C=O)NC(=O)[C@H](CC(C)C)NC(=O)[C@H](CC(C)C)NC(=O)OCc1ccccc1` [MG-115, Z-Leu-Leu-Norvalinal] (Cbz-Leu-Leu-[Nva]-aldehyde)?
pKi (26S proteasome): 7.46; pKi (20S proteasome): 7.68

For `CC(C)[C@H](O)[C@@]12NC(=O)[C@H](C)[C@@H]1OC2=O` [clasto-Lactacystin β-Lactone], which “sensitivity relative to its precursor, lactacystin” value (20S proteasome; in vitro) is on record?
The value was ~10-fold more sensitive than its precursor,.

With `CCCC[C@@H](C=O)NC(=O)[C@H](CC(C)C)NC(=O)[C@H](CC(C)C)NC(C)=O` [ALLN, N-Acetyl-Leu-Leu-Nle-CHO] (Ac-Leu-Leu-[Nle]-aldehyde) as the molecule, how does the pKi (calpain I) read?
Its pKi is 6.72.

What about the pKi (calpain II) of the same molecule?
Its pKi is 6.66.

What about the pKi [2] of the same molecule?
The pKi was 6.30 to 6.82.

What about the pKi (proteasome) of the same molecule?
The pKi was 5.22.

And the “virus replication in the HepG2 cell line by plaque assay of the cell culture supernatants” value (dengue virus TSV01)?
The value was “significantly reduced”.

And the “virus replication by plaque assay” value (dengue virus TSV01)?
Its value is “significantly and consistently reduced”.

And the pKi (cathepsin L)?
The pKi was 9.30.

What does the source list for `CSCC[C@@H](C=O)NC(=O)[C@H](CC(C)C)NC(=O)[C@H](CC(C)C)NC(C)=O` [Calpain Inhibitor II, Ac-Leu-Leu-Methional] (Ac-Leu-Leu-Met-aldehyde)?
pKi [2]: 6.22 to 6.92; inhibition of proteasome activity (proteasome): does not
